Where “and” joins values, the source holds several entries; their conditions need not be identical. Equal values may be shown once. Entries after “also recorded” stand apart in the source; their conditions may differ. Where a name gives a salt, the structure may show the parent alone.
How the values were obtained:
Solubility = type: physicochemical
[1] = Stability in aqueous solution; type: physicochemical; conditions: pH 3-9, heating at 60° C. for 10 minutes
[2] = tested on: Escherichia coli IFO 12734; experiment: Antibiotic-potentiating activity, paper disc growth inhibition zone, Escherichia coli IFO 12734; type: cell-based
Procedure: The potency of the compound of the formula (II) can be determined, for instance, by the cup method or paper disc method using bouillon agar containing 0.05 μg/ml of cefmenoxime with Escherichia coli IFO 12734 as the test organism. […]
(§1) *The test was performed using a bouillon agar medium containing the
antibiotic as specified and a paper disc, 8 mm in diameter.
**A paper disc, 8 mm in diameter, was impregnated with 25 μl of the […]

[3] = tested on: Proteus mirabilis ATCC 21100; experiment: Antibiotic-potentiating activity, paper disc growth inhibition zone, Proteus mirabilis ATCC 21100; type: cell-based
Procedure: as §1
antibiotic as specified and a paper disc, 8 mm in diameter. […]
*The test was performed under the same conditions as noted for Table 1
except for the test organism and the concentration of each coexisting

[4] = tested on: Escherichia coli IFO 12734; experiment: Inhibition of growth of Escherichia coli in liquid culture (absorbance at 600 nm); type: cell-based
Procedure: Table 5: Inhibition of growth of Escherichia coli IFO 12734 in the copresence of F2 (obtained in Example 1) and cephalexin or cefmenoxime.
(§2) To 8 ml of YAB medium (1.75% Difco antibiotic medium No. 3, 0.5% Difco yeast extract) containing 12% (w/v) of sucrose, there were added 1 ml of water, 50 μg/ml cephalexin solution or 10 μg/ml cefmenoxime solution, and the medium was inoculated with 1 ml of a preculture in YAB medium at an early logarithmic growth phase and incubated with shaking at 37° C. for 2 hours. Thereafter, the absorbance of the culture broth was measured at 600 nm using a Shimadzu-Bausch & Lomb Spectronic 20 colorimeter.

Escherichia coli = experiment: Observation of the culture broths under a phase contrast microscope; type: cell-based; conditions: for Form of cells under phase contrast microscope: antibiotic alone, F2 or F3 not added
Procedure: as §2

[5] = tested on: Escherichia coli IFO 12734; experiment: Inhibition of growth of Escherichia coli in liquid culture (absorbance at 600 nm); type: cell-based; remark: listed apart in the source
[6] = tested on: β-lactamase producing bacteria; conditions: D. A. Leigh et al., 1981; cited from earlier work
β-lactamases = conditions: D. A. Leigh et al., 1981; cited from earlier work
[7] = petroleum ether, hexane, diethyl ether, benzene, ethyl acetate and chloroform
[8] = F3 of Example 5, 1 μg/ml in test solution, no addition
[9] = F3 of Example 5, 5 μg/ml in test solution, no addition
[10] = F3 of Example 5, 25 μg/ml in test solution, no addition
[11] = F3 of Example 5, 125 μg/ml in test solution, no addition
[12] = F3 of Example 5, 1000 μg/ml in test solution, no addition

CC(=O)NC1C(OC2CC(C(=O)O)NC2CO)OC(CO)C(OS(=O)(=O)O)C1O (stereo not shown) [F3 monosodium salt]
Solubility (Solubility; acetone): only sparingly soluble
Solubility (Solubility; dimethyl sulfoxide): soluble
Solubility (Solubility; ethanol and pyridine): only sparingly soluble
Solubility (Solubility; methanol): soluble
Solubility (Solubility; [7]): Insoluble
Solubility (Solubility; water): readily soluble
Stability [1]: Stable

CC(=O)NC1C(OC2CC(C(=O)O)NC2CO)OC(CO)C(OS(=O)(=O)O)C1O (stereo not shown) [F3]
Diameter of growth inhibition zone ([2]; F3 of Example 5, 1 μg/ml in test solution, 0.03 μg/ml of mecillinam): < 8 mm
Diameter of growth inhibition zone ([2]; F3 of Example 5, 1 μg/ml in test solution, 0.05 μg/ml of cefmenoxime): 10 mm
Diameter of growth inhibition zone [2, 8]: < 8 mm
Diameter of growth inhibition zone ([2]; F3 of Example 5, 5 μg/ml in test solution, 0.03 μg/ml of mecillinam): < 8 mm
Diameter of growth inhibition zone ([2]; F3 of Example 5, 5 μg/ml in test solution, 0.05 μg/ml of cefmenoxime): 12.5 mm
Diameter of growth inhibition zone [2, 9]: < 8 mm
Diameter of growth inhibition zone ([2]; F3 of Example 5, 25 μg/ml in test solution, 0.03 μg/ml of mecillinam): 9 mm
Diameter of growth inhibition zone ([2]; F3 of Example 5, 25 μg/ml in test solution, 0.05 μg/ml of cefmenoxime): 15 mm
Diameter of growth inhibition zone [2, 10]: < 8 mm
Diameter of growth inhibition zone ([2]; F3 of Example 5, 125 μg/ml in test solution, 0.03 μg/ml of mecillinam): 17.5 mm
Diameter of growth inhibition zone ([2]; F3 of Example 5, 125 μg/ml in test solution, 0.05 μg/ml of cefmenoxime): 26 mm
Diameter of growth inhibition zone [2, 11]: < 8 mm
Diameter of growth inhibition zone ([2]; F3 of Example 5, 1000 μg/ml in test solution, 0.03 μg/ml of mecillinam): 28.5 mm
Diameter of growth inhibition zone ([2]; F3 of Example 5, 1000 μg/ml in test solution, 0.05 μg/ml of cefmenoxime): 38 mm
Diameter of growth inhibition zone [2, 12]: < 8 mm
Diameter of growth inhibition zone ([3]; F3 of Example 5, 1 μg/ml in test solution, 0.01 μg/ml of cefmenoxime): 9 mm
Diameter of growth inhibition zone ([3]; F3 of Example 5, 1 μg/ml in test solution, 0.05 μg/ml of mecillinam): < 8 mm
Diameter of growth inhibition zone [3, 8]: < 8 mm
Diameter of growth inhibition zone ([3]; F3 of Example 5, 5 μg/ml in test solution, 0.01 μg/ml of cefmenoxime): 12 mm
Diameter of growth inhibition zone ([3]; F3 of Example 5, 5 μg/ml in test solution, 0.05 μg/ml of mecillinam): 9 mm
Diameter of growth inhibition zone [3, 9]: < 8 mm
Diameter of growth inhibition zone ([3]; F3 of Example 5, 25 μg/ml in test solution, 0.01 μg/ml of cefmenoxime): 21 mm
Diameter of growth inhibition zone ([3]; F3 of Example 5, 25 μg/ml in test solution, 0.05 μg/ml of mecillinam): 13.5 mm
Diameter of growth inhibition zone [3, 10]: < 8 mm
Diameter of growth inhibition zone ([3]; F3 of Example 5, 125 μg/ml in test solution, 0.01 μg/ml of cefmenoxime): 28.5 mm
Diameter of growth inhibition zone ([3]; F3 of Example 5, 125 μg/ml in test solution, 0.05 μg/ml of mecillinam): 19 mm
Diameter of growth inhibition zone [3, 11]: < 8 mm
Diameter of growth inhibition zone ([3]; F3 of Example 5, 1000 μg/ml in test solution, 0.01 μg/ml of cefmenoxime): 32.5 mm
Diameter of growth inhibition zone ([3]; F3 of Example 5, 1000 μg/ml in test solution, 0.05 μg/ml of mecillinam): 30 mm
Diameter of growth inhibition zone [3, 12]: < 8 mm
Inhibition of growth of Escherichia coli ([4]; in the presence of cephalexin or cefmenoxime, decrease in absorbance): inhibits the growth of Escherichia coli
Swelling and bacteriolysis under phase contrast microscope (Escherichia coli; in the presence of cephalexin or cefmenoxime): partial swelling occurred and bacteriolysis proceeded
Elongation of cells under phase contrast microscope (Escherichia coli; in the presence of cephalexin or cefmenoxime, in dependence on the addition level): elongation was inhibited
Absorbance at 600 nm ([5]; final F3 (Example 5) 1 μg/ml, 1 μg/ml of cefmenoxime): 2.2
Absorbance at 600 nm ([5]; final F3 (Example 5) 1 μg/ml, no addition): 3.7
Absorbance at 600 nm ([5]; final F3 (Example 5) 10 μg/ml, 1 μg/ml of cefmenoxime): 0.6
Absorbance at 600 nm ([5]; final F3 (Example 5) 10 μg/ml, no addition): 3.7
Absorbance at 600 nm ([5]; final F3 (Example 5) 100 μg/ml, 1 μg/ml of cefmenoxime): 0.6
Absorbance at 600 nm ([5]; final F3 (Example 5) 100 μg/ml, no addition): 3.7

CC(=O)NC1C(OC2CC(C(=O)NCCS(=O)(=O)O)NC2CO)OC(CO)C(O)C1O (stereo not shown) [F4]
Diameter of growth inhibition zone ([2]; F4 of Example 7, 10 μg/ml in test solution, 0.03 μg/ml mecillinam): < 8 mm
Diameter of growth inhibition zone ([2]; F4 of Example 7, 10 μg/ml in test solution, 0.05 μg/ml cefmenoxime): < 8 mm
Diameter of growth inhibition zone ([2]; F4 of Example 7, 10 μg/ml in test solution, no addition): < 8 mm
Diameter of growth inhibition zone ([2]; F4 of Example 7, 100 μg/ml in test solution, 0.03 μg/ml mecillinam): 13 mm
Diameter of growth inhibition zone ([2]; F4 of Example 7, 100 μg/ml in test solution, 0.05 μg/ml cefmenoxime): 15 mm
Diameter of growth inhibition zone ([2]; F4 of Example 7, 100 μg/ml in test solution, no addition): < 8 mm
Diameter of growth inhibition zone ([2]; F4 of Example 7, 1000 μg/ml in test solution, 0.03 μg/ml mecillinam): 23 mm
Diameter of growth inhibition zone ([2]; F4 of Example 7, 1000 μg/ml in test solution, 0.05 μg/ml cefmenoxime): 26 mm
Diameter of growth inhibition zone ([2]; F4 of Example 7, 1000 μg/ml in test solution, no addition): < 8 mm

CO/N=C(\C(=O)N[C@@H]1C(=O)N2C(C(=O)O)=C(CSc3nnnn3C)CS[C@H]12)c1csc(N)n1 [cefmenoxime, reference compound]
Diameter of growth inhibition zone ([2]; 0.05 μg/ml cefmenoxime alone (F2, F3 or F4 0 μg/ml)): < 8 mm
Diameter of growth inhibition zone ([3]; 0.01 μg/ml cefmenoxime alone (F2 or F3 0 μg/ml)): < 8 mm
Absorbance at 600 nm ([4]; 1 μg/ml cefmenoxime alone (F2 or F3 0 μg/ml)): 1.95 and 1.90 and 2.9
Form of cells under phase contrast microscope (Escherichia coli): much elongated form

CC1=C(C(=O)O)N2C(=O)[C@@H](NC(=O)[C@H](N)c3ccccc3)[C@H]2SC1 [cephalexin, reference compound]
Absorbance at 600 nm ([4]; 5 μg/ml cephalexin alone (F2 0 μg/ml)): 2.35 and 2.15
Form of cells under phase contrast microscope (Escherichia coli): much elongated form

O=C(O)[C@H]1/C(=C/CO)O[C@@H]2CC(=O)N21 [clavulanic acid]
Potentiation of activity of β-lactam antibiotics against β-lactamase producing bacteria [6]: synergistically potentiates their activity
Inactivation of β-lactam antibiotics by β-lactamases (β-lactamases): prevents inactivation

CC(=O)NC1C(OC2CC(C(=O)NCCS(=O)(=O)O)NC2CO)OC(CO)C(OS(=O)(=O)O)C1O (stereo not shown) [disodium salt of F2]
Solubility (Solubility; acetone): Insoluble
Solubility (Solubility; dimethyl sulfoxide): soluble
Solubility (Solubility; ethanol and pyridine): spargingly soluble; also recorded: sparingly soluble
Solubility (Solubility; methanol): spargingly soluble; also recorded: sparingly soluble
Solubility (Solubility; [7]): Insoluble
Solubility (Solubility; water): readily soluble
Stability [1]: Stable

CC1(C)S[C@@H]2[C@H](/N=C/N3CCCCCC3)C(=O)N2[C@H]1C(=O)O [mecillinam, reference compound]
Diameter of growth inhibition zone ([2]; 0.03 μg/ml mecillinam alone (F2, F3 or F4 0 μg/ml)): < 8 mm
Diameter of growth inhibition zone ([3]; 0.05 μg/ml mecillinam alone (F2 or F3 0 μg/ml)): < 8 mm

CC(=O)NC1C(OC2CC(C(=O)NCCS(=O)(=O)O)NC2CO)OC(CO)C(OS(=O)(=O)O)C1O (stereo not shown) [monosodium salt of F2]
Solubility (Solubility; acetone): sparingly soluble
Solubility (Solubility; dimethyl sulfoxide): soluble
Solubility (Solubility; ethanol and pyridine): sparingly soluble
Solubility (Solubility; methanol): soluble
Solubility (Solubility; [7]): Insoluble
Solubility (Solubility; water): readily soluble
Stability [1]: Stable

Source: patent US4504655A, “Substances potentiating the activity of antibiotics and their production” (Takeda Chemical Industries, Ltd., priority 1981, dated 1985)
